# Patent publication US20250282742A1, “BENZOFURAN DERIVATIVES FOR TARGETING AUTOPHAGY” (Automera PTE. LTD, priority 2024, published 2025)
# Key:
# [1] = tested on: LC3 protein (LC3-II/LC3-I) in HeLa cells; experiment: LC3 lipidation assay (LC3-II/LC3-I, Western blot, 24 h treatment); assay type: cell-based; settings: fold change in LC3-II/LC3-I relative to DMSO control
# Procedure: (§1) HeLa cells were seeded in 6-well plates (700,000 cells) and allowed to adhere overnight. Media was replaced one hour before administering either vehicle (DMSO) or test compounds. After 24 hours of treatment, the media was discarded, and cells were rinsed once with ice-cold 1×PBS before detached from plates with ice-cold RIPA Lysis and Extraction Buffer (Thermo Fisher Scientific) which was supplemented with protease and phosphatase inhibitors. The resulting cell suspensions were transferred to pre-chilled microcentrifuge tubes, incubated on ice for 20 min with intermittent mixing and then centrifuged at 12,000 rpm for 20 min at 4° C. The supernatants were then aspirated slowly and transferred into new tubes kept on ice. The protein concentration in the samples was determined using BCA kit (Thermo Fisher Scientific) as per manufacturer's instructions.
# (§2) For the p62 oligomerization and LC3 lipidation assays, cell lysates were prepared using RIPA buffer supplemented with 2% SDS and benzonase (Sigma). The lysates were then combined with 4× Laemmli protein sample buffer (Bio-Rad), heated at 70° C. for 10 min and subjected to a brief centrifugation of 10-15 seconds.
# (§3) For p62 oligomerization and LC3 lipidation assays, lysates containing 30 μg of protein and for BRD4 and FKBP12(F36V) degradation assays, lysates containing 20 μg of protein, were loaded slowly into the wells of 4-20% gradient Tris-glycine gels (Bio-Rad). The gels were run at 100V until completion and transferred onto PVDF membranes. Membranes were blocked using 5% milk in TBS-Tween (0.1%) buffer at room temperature for 1 hour. The membranes were incubated with primary antibody in 5% milk-TBST with shaking, overnight at 4° C. The primary antibodies used were: p62 (Novus Biologicals 2C11, H00008878-MO1), LC3A/B (Cell Signalling Technology D3U4C, 12741S), FKBP12 (Abcam ab24373), BRD4 (Cell Signalling Technology E2A7X, 13440S), GAPDH (Cell Signalling Technology D4C6R, 97166S), and β-Actin (Proteintech 66009-1-Ig). Following primary antibody incubation, membranes were washed thrice with TBST 10 min before and after incubation with secondary-HRP conjugated antibody in 5% milk-TBST for 1 hour at room temperature. The secondary antibodies used were: Anti-Mouse IgG HRP Conjugate (Promega W4021B) and Anti-Rabbit IgG HRP Conjugate (Promega W4011B). For the p62 oligomerization assay, the total protein levels were assessed using Ponceau staining (Thermo Fisher Scientific) of PVDF membrane as per recommendation by manufacturer's guidelines.
# (§4) Imaging was acquired using SuperSignal™ West Pico PLUS Chemiluminescent Substrate (Thermo Fisher Scientific) with iBright Invitrogen FL100 imaging system. Band signal intensity, reflective of protein concentrations, were quantified using Invitrogen™ iBright™ Analysis and Image J software.
# HeLa cells were treated with compounds for 24 hours to evaluate the effect of these compounds on LC3-II/LC3-I levels, a measure of autophagy activation. The changes in levels of LC3-I, LC3-II and β-Actin (loading control) were assessed by Western blotting, as described in experimental procedures. The fold increase of LC3-II/LC3-I levels induced by compound treatment relative to vehicle control (DMSO) was determined and summarized in Table 9. Specifically, FIGS. 3A-C show Western blot images and their corresponding quantification showing the lipidation levels of LC3 protein (LC3-II/LC3-I) by 24 hours compound treatments at listed concentrations, relative to vehicle control (DMSO) in HeLa cells.
# [2] = molecular target: T1, Recombinant p62 protein (Homo sapiens, UniProt Q13501); experiment: Surface plasmon resonance (SPR) compound binding to immobilised p62; settings: recombinant p62, 15° C
# T1 construct: Recombinant p62 protein was buffer exchanged into Biacore SPR running buffer
# T1 sequence (Q13501 whole entry, species assumed): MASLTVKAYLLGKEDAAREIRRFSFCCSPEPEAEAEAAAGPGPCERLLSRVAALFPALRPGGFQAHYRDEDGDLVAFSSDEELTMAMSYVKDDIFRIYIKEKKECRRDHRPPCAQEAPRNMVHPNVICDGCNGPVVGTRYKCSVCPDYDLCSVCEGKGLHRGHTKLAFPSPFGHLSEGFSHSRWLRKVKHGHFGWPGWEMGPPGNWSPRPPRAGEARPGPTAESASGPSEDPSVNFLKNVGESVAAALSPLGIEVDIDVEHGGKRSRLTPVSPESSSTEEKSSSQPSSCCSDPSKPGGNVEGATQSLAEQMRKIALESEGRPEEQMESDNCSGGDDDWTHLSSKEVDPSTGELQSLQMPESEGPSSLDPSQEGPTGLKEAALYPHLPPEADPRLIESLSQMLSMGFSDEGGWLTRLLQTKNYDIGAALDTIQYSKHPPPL
# Procedure: Example 28: Surface Plasmon Resonance (SPR) Analysis
# Recombinant p62 protein was buffer exchanged into Biacore SPR running buffer (Cytiva 100671) using the Slide-A-Lyzer Mini Dialysis system 7K MWCO (Thermo Fisher Scientific, Cat no. 69560). The final protein concentration was determined using the Nanodrop One spectrophotometer (Thermo Fisher Scientific, cat no. ND-ONE-W), with calibration for the dialysis buffer.
# The prepared protein was diluted in sodium acetate buffer (NaAc, pH 5.5, Cytiva) to concentrations ranging from approximately 0.25-40 μg/mL. Post-immobilization, the protein required approximately 16 hours of equilibration in running buffer supplemented with 1% DMSO at 15° C. to ensure adequate surface equilibration and protein reorganization.
# All SPR experiments were conducted at a constant temperature of 15° C. The SPR chip surface was activated using EDC/NHS for a contact time of 6-10 min at a flow rate of 10 μL/min. This was followed by protein immobilization for 2100 seconds and ethanolamine capping for 420 seconds, both at the same flow rate. Immediately after immobilization, the NH2—REEE peptide was analyzed in Single Cycle Kinetics mode (SCK) to verify surface activity, ensuring it binds the sample with the published affinity (−20 μM by SPR).
# For general compound binding studies, experiments were performed at 15° C. using a running buffer composed of 10 mM HEPES, 150 mM NaCl, 1 mM DTT, 0.05% Tween 20, and 1% DMSO at pH 7.4. The test compound was initially prepared at a 20 mM concentration in DMSO and subsequently titrated in 2-fold dilutions. For each assay, 2 μL of the compound was mixed with 198 μL of the running buffer, and the mixture was thoroughly pipetted approximately 15 times for homogenization.
# A series of blank injections (0 μM concentration) were included for double referencing, with at least 8 or 16 per plate depending on the format. Typical injection parameters were 120 seconds for association and 180 seconds for dissociation at a flow rate of […]. A four-point solvent correction was prepared with DMSO concentrations ranging from 2% to 0.5% in the buffer. Post each compound injection, the system's needles were washed with 50% DMSO.
# Analysis of the SPR data was conducted using the Cytiva Evaluation software. The binding levels at the late time-point of each interaction were corrected for reference, then normalized to percentage bound values to account for variations in immobilization levels, protein molecular weight, and compound molecular weight.
# Compound binding studies were carried out according to experimental procedures above and SPR % occupancy was determined and summarized in Table 7.
# [3] = tested on: p62 oligomers in HeLa cells; experiment: p62 oligomerization assay (Western blot, 24 h treatment); assay type: cell-based; settings: fold change of p62 oligomer levels relative to DMSO control
# Procedure: as §1, §2, §3, §4
# HeLa cells were treated with compounds for 24 hours to evaluate the effect of these compounds on p62 oligomerisation activity. The resulting changes in levels of p62 oligomers were assessed by Western blotting, as described in experimental procedures. The fold change of p62 oligomer levels induced by compound treatment relative to vehicle control (DMSO) was determined and summarized in Table 8. Specifically, FIGS. 2A-C show Western blot images and their corresponding quantification showing the levels of high molecular weight (100-200 kDa) p62 oligomers by 24 hours compound treatments at listed concentrations, relative to vehicle control (DMSO) in HeLa cells. Protein loading consistencies was assessed by Ponceau staining (not shown).
# [4] = molecular target: T2, BRD4 in HeLa cells (Homo sapiens, UniProt O60885); experiment: BRD4 degradation assay (Western blot, 24 h treatment); assay type: cell-based; settings: doses up to 10 μM
# T2 construct: endogenous in cells; host or cells: HeLa
# Procedure: as §1
# For the BRD4 degradation assay, cell lysates were prepared with RIPA buffer containing 0.25% SDS. These were mixed with 4× Laemmli protein sample buffer (Bio-Rad) supplemented with beta-mercaptoethaol (355 mM). The lysates were then heated at 95° C. for 5 min, and briefly centrifuged for 10-15 seconds.
# For p62 oligomerization and LC3 lipidation assays, lysates containing 30 μg of protein and for BRD4 and FKBP12(F36V) degradation assays, lysates containing 20 μg of protein, were loaded slowly into the wells of 4-20% gradient Tris-glycine gels (Bio-Rad). The gels were run at 100V until completion and transferred onto PVDF membranes. Membranes were blocked using 5% milk in TBS-Tween (0.1%) buffer at room temperature for 1 hour. The membranes were incubated with primary antibody in 5% milk-TBST with shaking, overnight at 4° C. […] For the p62 oligomerization assay, the total protein levels were assessed using Ponceau staining (Thermo Fisher Scientific) of PVDF membrane as per recommendation by manufacturer's guidelines.
# as §4
# To evaluate levels of protein degradation by compounds 100-103, HeLa cells were treated with the corresponding compounds at doses up to 10 μM for 24 hours. The changes in levels of BRD4 and GAPDH (loading control) were assessed by Western blotting, as described in experimental procedures. Results are summarized in Table 11 below, measured by percentage change in BRD4 levels by compound treatment relative to vehicle (DMSO) control.
SMILES,LC3 lipidation [1],receptor occupancy at 100 µM [2] [%],p62 oligomerization [3],Degradation (change in BRD4 levels relative to DMSO control) [4]
"OCCNCc1ccc2c(Cc3ccccc3)coc2c1 [Compound 43, 2-(((3-benzylbenzofuran-6-yl)methyl)amino)ethan-1-ol]",++ (> 2-fold change in LC3-II/LC3-I relative to DMSO control),30 to 70,+ (< 2-fold change relative to DMSO control),
OCCNCc1ccc2cc(Cc3cccc(Cl)c3)oc2c1 [compound 15],+ (< 2-fold change in LC3-II/LC3-I relative to DMSO control),> 70,++ (> 2-fold change relative to DMSO control),
Cc1sc2c(c1C)C(c1ccc(Cl)cc1)=N[C@@H](CC(=O)NCCOCCNCc1ccc3cc(Cc4ccccc4)oc3c1)c1nnc(C)n1-2 [compound 102],,,,+ (< 2-fold change in BRD4 levels relative to DMSO control)
CC(O)CNCc1ccc2cc(Cc3ccccc3)oc2c1 (stereo not drawn) [compound 5],+ (< 2-fold change in LC3-II/LC3-I relative to DMSO control),30 to 70,+ (< 2-fold change relative to DMSO control),
COc1ccc(Cc2cc3ccc(CNCCO)cc3o2)cc1 [compound 17],+ (< 2-fold change in LC3-II/LC3-I relative to DMSO control),30 to 70,+ (< 2-fold change relative to DMSO control),
"OCCNCc1ccc2cc(CNC3CCCC(O)C3)oc2c1 (stereo not drawn) [Compound 33, 3-(((6-(((2-hydroxyethyl)amino)methyl)benzofuran-2-yl)methyl)amino)cyclohexan-1-ol]",+ (< 2-fold change in LC3-II/LC3-I relative to DMSO control),30 to 70,+ (< 2-fold change relative to DMSO control),
O=C(Nc1ccccc1)c1cc2ccc(CNCCO)cc2o1 [compound 35],+ (< 2-fold change in LC3-II/LC3-I relative to DMSO control),30 to 70,+ (< 2-fold change relative to DMSO control),
"Cc1sc2c(c1C)C(c1ccc(Cl)cc1)=N[C@@H](CC(=O)NCCOCCOCCOCCNCc1ccc3cc(Cc4ccccc4)oc3c1)c1nnc(C)n1-2 [compound 100, (S)-N-(1-(2-benzylbenzofuran-6-yl)-5,8,11-trioxa-2-azatridecan-13-yl)-2-(4-(4-chlorophenyl)-2,3,9-trimethyl-6H-thieno[3,2-f][1,2,4]triazolo[4,3-a][1,4]diazepin-6-yl)acetamide]",,,,++ (> 2-fold change in BRD4 levels relative to DMSO control)
Cc1sc2c(c1C)C(c1ccc(Cl)cc1)=N[C@@H](CC(=O)NCCOCCOCCOCCNCc1ccc3cc(CCc4ccccc4)oc3c1)c1nnc(C)n1-2 [compound 101],,,,++ (> 2-fold change in BRD4 levels relative to DMSO control)
OC1CC(NCc2ccc3cc(Cc4ccccc4)oc3c2)C1 (stereo not drawn) [compound 10],+ (< 2-fold change in LC3-II/LC3-I relative to DMSO control),30 to 70,++ (> 2-fold change relative to DMSO control),
OCCNCc1cc(F)c2cc(Cc3ccccc3)oc2c1 [compound 37],++ (> 2-fold change in LC3-II/LC3-I relative to DMSO control),30 to 70,++ (> 2-fold change relative to DMSO control),
"CC(C)NCC(O)COc1ccc2cc(Cc3ccccc3)oc2c1 (stereo not drawn) [Compound 9, 1-((2-benzylbenzofuran-6-yl)oxy)-3-(isopropylamino)propan-2-ol]",++ (> 2-fold change in LC3-II/LC3-I relative to DMSO control),> 70,+ (< 2-fold change relative to DMSO control),
"CC(C)NCCOCc1ccc2cc(Cc3ccccc3)oc2c1 [Compound 7, N-(2-((2-benzylbenzofuran-6-yl)methoxy)ethyl)propan-2-amine]",++ (> 2-fold change in LC3-II/LC3-I relative to DMSO control),30 to 70,++ (> 2-fold change relative to DMSO control),
OCCNCc1ccc2cc(CCc3ccccc3)oc2c1 [compound 3],++ (> 2-fold change in LC3-II/LC3-I relative to DMSO control),30 to 70,++ (> 2-fold change relative to DMSO control),
CNCCOCc1ccc2cc(Cc3ccccc3)oc2c1 [compound 8],+ (< 2-fold change in LC3-II/LC3-I relative to DMSO control),30 to 70,++ (> 2-fold change relative to DMSO control),
